Source: article PMC2732992 (Proteins, 2009)

How the values were obtained:
[1] = system: GluR2o / GluR3o expressed in insect cells; settings: cited from earlier work; for Affinity for GluR2o higher than for GluR3o: receptors expressed in insect cells
GluR2o S1S2 domain = GluR2o S1S2 domain (Rattus norvegicus, UniProt P19491, DEL528-650/S652T/V651G); experiment: Inhibition of [3H]AMPA binding to GluR2o S1S2; settings: GluR2 S1S2 vs GluR3 S1S2, inhibition of [3H]AMPA binding

NC(Cc1onc(O)c1Cl)C(=O)O (stereo not shown) [Cl-HIBO, 4-chlorohomoibotenic acid]
Affinity of homomeric GluR2 greater than GluR3 ([1]; homomeric receptors, same expression system (insect cells)): approximately 100 fold
Difference in affinity (IC50) between GluR2 S1S2 and GluR3 S1S2 (GluR2o S1S2 domain): ten-fold

N[C@@H](Cn1cc(F)c(=O)[nH]c1=O)C(=O)O [fluorowillardiine]
Affinity for GluR2o higher than for GluR3o [1]: 10 fold

N[C@@H](Cn1ccc(=O)[nH]c1=O)C(=O)O [willardiine]
Affinity for GluR2o higher than for GluR3o [1]: 10 fold
